Source: the supplement of paper PMC6045584
± gives the standard deviation of the averaged measurements.

compound: COCC[n+]1c2c(n(Cc3cnccn3)c1C)C(=O)c1ccccc1C2=O [YM155]; experiment: area under dose-response curve of surviving fraction (unscaled, Aref=0) (surviving fraction x log10(nM)); higher = more resistant; details: exposure time: 5 days; dose range 0.5-1000 nM
Method in brief: (§1)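 Each tumour cell line was screened three times in 384-well plates, receiving eight inhibitor concentrations from 0.5 to 1000 nM for five days. CellTiter-Glo luminescence gave viability, normalised to DMSO-only wells. Using the drc R package, surviving fractions were fitted with 3-parameter logistic dose-response curves, and the unscaled activity area over log10 dose (Aref = 0) was taken as the area under the curve.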

| Test System | area under dose-response curve |
| --- | --- |
| HCC1806 BREAST | 1.02 |
| SG43 HEADNECK | 2.35 |
| HOS BONE | 0.418 |
| MDAMB468 BREAST | 0.87 |
| HSSYII SYNOVIAL | 0.716 |
| SCC90 HEADNECK | 2.17 |
| LNCAP PROSTATE | 1.82 |
| HCT15 LARGE INTESTINE | 2.03 |
| MHM BONE | 1.94 |

compound: CC(=O)c1c(C)c2cnc(Nc3ccc(N4CCNCC4)cn3)nc2n(C2CCCC2)c1=O; experiment: as above; details: exposure time: 5 days; dose range 0.5-1000 nM
Method in brief: as §1

| Test System | area under dose-response curve |
| --- | --- |
| HCC1806 BREAST | 3.44 |
| SG43 HEADNECK | 2.84 |
| HOS BONE | 3.47 |
| MDAMB468 BREAST | 3.48 |
| HSSYII SYNOVIAL | 3.04 |
| SCC90 HEADNECK | 3.7 |
| LNCAP PROSTATE | 3.12 |
| HCT15 LARGE INTESTINE | 3.59 |
| MHM BONE | 3.35 |

compound: O=C(O)C1(C(=O)O)CCC1.[NH2-].[NH2-].[Pt+2] [CARBOPLATIN]; experiment: as above; details: exposure time: 5 days; dose range 0.5-1000 nM
Method in brief: as §1

| Test System | area under dose-response curve |
| --- | --- |
| HCC1806 BREAST | 3.64 |
| SG43 HEADNECK | 3.37 |
| HOS BONE | 3.54 |
| MDAMB468 BREAST | 3.37 |
| HSSYII SYNOVIAL | 3.19 |
| SCC90 HEADNECK | 3.68 |
| LNCAP PROSTATE | 3.35 |
| HCT15 LARGE INTESTINE | 3.51 |
| MHM BONE | 3.46 |

compound: C[C@]1(O)C[C@@H](c2nc(-c3ccc4ccc(-c5ccccc5)nc4c3)c3c(N)nccn32)C1 [OSI-906]; experiment: as above; details: exposure time: 5 days; dose range 0.5-1000 nM
Method in brief: as §1

| Test System | area under dose-response curve |
| --- | --- |
| HCC1806 BREAST | 2.83 |
| SG43 HEADNECK | 2.7 |
| HOS BONE | 3.06 |
| MDAMB468 BREAST | 3.08 |
| HSSYII SYNOVIAL | 2.6 |
| SCC90 HEADNECK | 3.1 |
| LNCAP PROSTATE | 3.5 |
| HCT15 LARGE INTESTINE | 2.9 |
| MHM BONE | 3.03 |

compound: T1, CC(=O)O[C@H]1C(=O)[C@@]2(C)[C@H]([C@H](OC(=O)c3ccccc3)[C@]3(O)C[C@H](OC(=O)[C@H](O)[C@@H](NC(=O)c4ccccc4)c4ccccc4)C(C)=C1C3(C)C)[C@]1(OC(C)=O)CO[C@@H]1C[C@@H]2O [PACLITAXEL]; experiment: as above; details: exposure time: 5 days; dose range 0.5-1000 nM
Method in brief: as §1

| Test System | area under dose-response curve |
| --- | --- |
| HCC1806 BREAST | 0.267 |
| SG43 HEADNECK | 1.9 |
| HOS BONE | 0.728 |
| MDAMB468 BREAST | 0.701 |
| HSSYII SYNOVIAL | 0.524 |
| SCC90 HEADNECK | 1.1 |
| LNCAP PROSTATE | 0.354 |
| HCT15 LARGE INTESTINE | 1.76 |
| MHM BONE | 1.43 |

compound: COc1cc2ncnc(Nc3ccc(F)c(Cl)c3)c2cc1OCCCN1CCOCC1 [GEFITINIB]; experiment: as above; details: exposure time: 5 days; dose range 0.5-1000 nM
Method in brief: as §1

| Test System | area under dose-response curve |
| --- | --- |
| HCC1806 BREAST | 2.94 |
| SG43 HEADNECK | 2.21 |
| HOS BONE | 3.42 |
| MDAMB468 BREAST | 3.08 |
| HSSYII SYNOVIAL | 3.35 |
| SCC90 HEADNECK | 2.63 |
| LNCAP PROSTATE | 3.19 |
| HCT15 LARGE INTESTINE | 3.44 |
| MHM BONE | 3.37 |

compound: CC(=O)NCC(=O)N1[C@@H]2CC[C@H]1c1ccc(Nc3ncc(C(F)(F)F)c(NC4CCC4)n3)cc12; experiment: as above; details: exposure time: 5 days; dose range 0.5-1000 nM
Method in brief: as §1

| Test System | area under dose-response curve |
| --- | --- |
| HCC1806 BREAST | 2.62 |
| SG43 HEADNECK | 2.61 |
| HOS BONE | 2.69 |
| MDAMB468 BREAST | 2.44 |
| HSSYII SYNOVIAL | 1.97 |
| SCC90 HEADNECK | 2.52 |
| LNCAP PROSTATE | 2.3 |
| HCT15 LARGE INTESTINE | 2.05 |
| MHM BONE | 3.12 |

compound: Cc1ccc(-c2cc(C(F)(F)F)nn2-c2ccc(S(N)(=O)=O)cc2)cc1 [CELECOXIB]; experiment: as above; details: exposure time: 5 days; dose range 0.5-1000 nM
Method in brief: as §1

| Test System | area under dose-response curve |
| --- | --- |
| HCC1806 BREAST | 3.65 |
| SG43 HEADNECK | 3.37 |
| HOS BONE | 3.42 |
| MDAMB468 BREAST | 3.83 |
| HSSYII SYNOVIAL | 3.39 |
| SCC90 HEADNECK | 3.43 |
| LNCAP PROSTATE | 3.19 |
| HCT15 LARGE INTESTINE | 3.49 |
| MHM BONE | 3.42 |

compound: CC[C@@]1(O)C(=O)OCc2c1cc1n(c2=O)Cc2cc3ccccc3nc2-1 [CAMPTOTHECIN]; experiment: as above; details: exposure time: 5 days; dose range 0.5-1000 nM
Method in brief: as §1

| Test System | area under dose-response curve |
| --- | --- |
| HCC1806 BREAST | 0.682 |
| SG43 HEADNECK | 2.21 |
| HOS BONE | 1.25 |
| MDAMB468 BREAST | 1.41 |
| HSSYII SYNOVIAL | 0.531 |
| SCC90 HEADNECK | 1.77 |
| LNCAP PROSTATE | 0.813 |
| HCT15 LARGE INTESTINE | 0.543 |
| MHM BONE | 2.08 |

compound: T1, PACLITAXEL; experiment: surviving fraction relative to DMSO-only wells; higher = less growth inhibition; details: 0.5 nM; exposure time: 5 days
Method in brief: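 Log-phase tumour cell lines were seeded at 250–500 cells per well in 384-well plates. After 24 hours they were exposed continuously for five days to inhibitors at 0.5, 1, 5, 10, 50, 100, 500 and 1000 nM. Viability was read by CellTiter-Glo luminescence after 10 minutes at room temperature, and surviving fraction is luminescence normalised to the median of DMSO-only wells. Each line was screened three times and kept only if replicate Pearson r >0.7 and median Z' >0.3.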

| Test System | surviving fraction |
| --- | --- |
| HCC1806 BREAST | 0.89 ± 0.17 |
| SG43 HEADNECK | 0.793 ± 0.2 |
| HOS BONE | 1.01 ± 0.011 |
| MDAMB468 BREAST | 0.973 ± 0.024 |
| HSSYII SYNOVIAL | 0.836 ± 0.0087 |
| SCC90 HEADNECK | 0.919 ± 0.038 |
| LNCAP PROSTATE | 0.531 ± 0.04 |
| HCT15 LARGE INTESTINE | 1.01 ± 0.012 |
| MHM BONE | 0.9897 ± 0.0049 |

same assay, conditions: 1 nM; exposure time: 5 days

| Test System | surviving fraction |
| --- | --- |
| HCC1806 BREAST | 0.1833 ± 0.0015 |
| SG43 HEADNECK | 0.849 ± 0.078 |
| HOS BONE | 0.95 ± 0.01 |
| MDAMB468 BREAST | 0.771 ± 0.056 |
| HSSYII SYNOVIAL | 0.558 ± 0.021 |
| SCC90 HEADNECK | 0.95 ± 0.12 |
| LNCAP PROSTATE | 0.358 ± 0.086 |
| HCT15 LARGE INTESTINE | 1.07 ± 0.024 |
| MHM BONE | 0.992 ± 0.053 |

same assay, conditions: 5 nM; exposure time: 5 days

| Test System | surviving fraction |
| --- | --- |
| HCC1806 BREAST | 0.0437 ± 0.0038 |
| SG43 HEADNECK | 0.588 ± 0.022 |
| HOS BONE | 0.085 ± 0.003 |
| MDAMB468 BREAST | 0.144 ± 0.018 |
| HSSYII SYNOVIAL | 0.0827 ± 0.011 |
| SCC90 HEADNECK | 0.429 ± 0.057 |
| LNCAP PROSTATE | 0.054 ± 0.015 |
| HCT15 LARGE INTESTINE | 0.95 ± 0.077 |
| MHM BONE | 0.535 ± 0.021 |

same assay, conditions: 10 nM; exposure time: 5 days

| Test System | surviving fraction |
| --- | --- |
| HCC1806 BREAST | 0.0357 ± 0.0032 |
| SG43 HEADNECK | 0.619 ± 0.067 |
| HOS BONE | 0.0507 ± 0.004 |
| MDAMB468 BREAST | 0.0737 ± 0.0015 |
| HSSYII SYNOVIAL | 0.0622 ± 0.0043 |
| SCC90 HEADNECK | 0.294 ± 0.063 |
| LNCAP PROSTATE | 0.0533 ± 0.004 |
| HCT15 LARGE INTESTINE | 0.861 ± 0.074 |
| MHM BONE | 0.339 ± 0.022 |

same assay, conditions: 50 nM; exposure time: 5 days

| Test System | surviving fraction |
| --- | --- |
| HCC1806 BREAST | 0.0307 ± 0.0057 |
| SG43 HEADNECK | 0.471 ± 0.0079 |
| HOS BONE | 0.0357 ± 0.004 |
| MDAMB468 BREAST | 0.064 ± 0.001 |
| HSSYII SYNOVIAL | 0.0613 ± 0.0025 |
| SCC90 HEADNECK | 0.119 ± 0.024 |
| LNCAP PROSTATE | 0.0417 ± 0.0015 |
| HCT15 LARGE INTESTINE | 0.255 ± 0.064 |
| MHM BONE | 0.243 ± 0.0095 |

same assay, conditions: 100 nM; exposure time: 5 days

| Test System | surviving fraction |
| --- | --- |
| HCC1806 BREAST | 0.0207 ± 0.0029 |
| SG43 HEADNECK | 0.467 ± 0.091 |
| HOS BONE | 0.025 ± 0.001 |
| MDAMB468 BREAST | 0.0567 ± 0.0091 |
| HSSYII SYNOVIAL | 0.0585 ± 0.0041 |
| SCC90 HEADNECK | 0.0713 ± 0.011 |
| LNCAP PROSTATE | 0.0347 ± 0.0038 |
| HCT15 LARGE INTESTINE | 0.0833 ± 0.0076 |
| MHM BONE | 0.216 ± 0.011 |

same assay, conditions: 500 nM; exposure time: 5 days

| Test System | surviving fraction |
| --- | --- |
| HCC1806 BREAST | 0.0253 ± 0.0031 |
| SG43 HEADNECK | 0.477 ± 0.07 |
| HOS BONE | 0.0223 ± 0.0011 |
| MDAMB468 BREAST | 0.057 ± 0.0036 |
| HSSYII SYNOVIAL | 0.049 ± 0.0033 |
| SCC90 HEADNECK | 0.07 ± 0.012 |
| LNCAP PROSTATE | 0.0387 ± 0.0021 |
| HCT15 LARGE INTESTINE | 0.04 ± 0.0036 |
| MHM BONE | 0.187 ± 0.0059 |

same assay, conditions: 1000 nM; exposure time: 5 days

| Test System | surviving fraction |
| --- | --- |
| HCC1806 BREAST | 0.021 ± 0.0017 |
| SG43 HEADNECK | 0.433 ± 0.038 |
| HOS BONE | 0.0217 ± 0.0015 |
| MDAMB468 BREAST | 0.0563 ± 0.013 |
| HSSYII SYNOVIAL | 0.0538 ± 0.0021 |
| SCC90 HEADNECK | 0.0663 ± 0.01 |
| LNCAP PROSTATE | 0.0477 ± 0.0055 |
| HCT15 LARGE INTESTINE | 0.0453 ± 0.0032 |
| MHM BONE | 0.177 ± 0.01 |
